# System: IL-1β production in PMA-differentiated THP-1 cells
# Experiment: IL-1β production in PMA-differentiated THP-1 cells stimulated with gramicidin (hTHP-1 assay, 2% fetal bovine serum; Procedures 1-3)
# Assay type: cell-based, human
# Conditions: Homo sapiens, THP-1, Table B3; hTHP-1 assay containing 2% fetal bovine serum, gramicidin stimulation, IL-1β readout; read-out: hTHP-1 IC50
# Procedure, shortened: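 IL-1β released into supernatants was read by HTRF after 2 h gramicidin (5 μM) challenge. Before challenge, compounds (3-fold dilutions, top 100 μM, 0.37% DMSO) were given 1 h on THP-1 cells differentiated with PMA (20 ng/ml, 16-18 h) and held in 2% FBS medium.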
row,Compound,IC50
1,"C[C@](O)(COCCO)c1ccc([S@@](N)(=O)=NC(=O)Nc2c3c(cc4c2CCC4)CCC3)s1 [Example 748, (S)-N′-((1,2,3,5,6,7-hexahydro-s-indacen-4-yl)carbamoyl)-5-((S)-2-hydroxy-1-(2-hydroxyethoxy)propan-2-yl)thiophene-2-sulfonimidamide]",40 to 200 nM
2,"NS(=O)(=NC(=O)Nc1c2c(cc3c1CCC3)CCC2)c1cc2c(s1)CCOC2 (stereo not drawn) [Example 758, N′-((1,2,3,5,6,7-hexahydro-s-indacen-4-yl)carbamoyl)-6,7-dihydro-4H-thieno[3,2-c]pyran-2-sulfonimidamide]",200 to 1000 nM
3,"NS(=O)(=NC(=O)Nc1c2c(cc3c1CC3)CCC2)c1cc2c(s1)CCN(CC(F)F)C2 (stereo not drawn) [Example 773, 5-(2,2-Difluoroethyl)-N′-((2,4,5,6-tetrahydro-1H-cyclobuta[f]inden-3-yl)carbamoyl)-4,5,6,7-tetrahydrothieno[3,2-c]pyridine-2-sulfonimidamide]",1000 to 5000 nM

# Same assay, conditions: Homo sapiens, THP-1, hTHP-1 assay containing 2% fetal bovine serum, Table B2, class symbols; read-out: IC50
row,Compound,IC50
1,"N[S@@](=O)(=NC(=O)Nc1c2c(cc3c1CCC3)CCC2)c1ccc(CNCC(F)F)cc1 [Example 708, (R)-4-(((2,2-difluoroethyl)amino)methyl)-N′-((1,2,3,5,6,7-hexahydro-s-indacen-4-yl)-carbamoyl)benzenesulfonimidamide]",1000 to 5000 nM
2,CC(C)c1cnc([S@](N)(=O)=NC(=O)Nc2c3c(cc4c2CCC4)CCC3)c(F)c1 [Compound 903b],5000 to 30000 nM
3,"C[C@]1(c2ncc(S(N)(=O)=NC(=O)Nc3c4c(cc5c3CCC5)CCC4)s2)CNC(=O)O1 (stereo partly drawn) [Example 674, N′-((1,2,3,5,6,7-hexahydro-s-indacen-4-yl)carbamoyl)-2-((R)-5-methyl-2-oxooxazolidin-5-yl)thiazole-5-sulfonimidamide]",40 to 200 nM
4,"CN1CCN(Cc2cccc(S(N)(=O)=NC(=O)Nc3c4c(cc5c3CCC5)CCC4)c2)CC1 (stereo not drawn) [Example 505, N′-((1,2,3,5,6,7-hexahydro-s-indacen-4-yl)carbamoyl)-3-((4-methylpiperazin-1-yl)methyl) benzenesulfonimidamide]",5000 to 30000 nM
5,CC(NC1CCC1)c1ccc(S(N)(=O)=NC(=O)Nc2c3c(cc4c2CC4)CCC3)c(F)c1 (stereo not drawn) [Compound 892],200 to 1000 nM
6,"C[C@@](O)(CN)c1ncc(S(N)(=O)=NC(=O)Nc2c3c(cc4c2CCC4)CCC3)s1 (stereo partly drawn) [Example 673, 2-((R)-1-amino-2-hydroxypropan-2-yl)-N′-((1,2,3,5,6,7-hexahydro-s-indacen-4-yl)carbamoyl)thiazole-5-sulfonimidamide]",40 to 200 nM
7,"CN(C)C(c1ccc(S(N)(=O)=NC(=O)Nc2c3c(cc4c2CCC4)CCC3)cc1)C(F)(F)F (stereo not drawn) [Example 492, 4-(1-(Dimethylamino)-2,2,2-trifluoroethyl)-N′-((1,2,3,5,6,7-hexahydro-s-indacen-4-yl)carbamoyl)benzenesulfonimidamide]",1000 to 5000 nM
8,"NS(=O)(=NC(=O)Nc1c2c(cc3c1CCC3)CCC2)c1ccc(C2CCCN2)cc1 (single isomer, unassigned) [Example 648, (R,R) or (S,R)-N′-((1,2,3,5,6,7-hexahydro-s-indacen-4-yl)carbamoyl)-4-(pyrrolidin-2-yl) benzenesulfonimidamide]",1000 to 5000 nM
9,CC(C)(O)c1nc(CO)c(S(N)(=O)=NC(=O)Nc2c3c(cc4c2C(=O)CC4)CCC3)s1 (stereo not drawn) [Compound 914],1000 to 5000 nM

# Same assay, conditions: Homo sapiens, THP-1, hTHP-1 assay containing 2% fetal bovine serum, Table B2, given as bound; read-out: IC50
row,Compound,IC50
1,"CC(C)(O)c1ncc(S(N)(=O)=NC(=O)Nc2cc3c(c4c2CCC4=O)CCC3)s1 (single isomer, unassigned) [Example 564, (S) or (R)-2-(2-hydroxypropan-2-yl)-N′-((1-oxo-1,2,3,6,7,8-hexahydro-as-indacen-4-yl)carbamoyl) thiazole-5-sulfonimidamide]",> 30000 nM

# Same assay, conditions: Table B1; hTHP-1 assay containing 2% fetal bovine serum, gramicidin stimulation, IL-1β readout; read-out: hTHP-1 IC50 (average)
row,Compound,IC50
1,"CN(C)C(C)(C)c1ccc(S(N)(=O)=NC(=O)Nc2c3c(cc4c2CCC4)CCC3)cc1 (single isomer, unassigned) [Example 361, (R) or (S)-4-(2-(dimethyl-amino)propan-2-yl)-N′-((1,2,3,5,6,7-hexahydro-s-indacen-4-yl)carbamoyl)-benzenesulfonimidamide]",40 to 200 nM

# Same assay, conditions: Table B3; hTHP-1 assay containing 2% fetal bovine serum, gramicidin stimulation, IL-1β readout; read-out: hTHP-1 IC50
row,Compound,IC50
1,"C[C@@](O)(CO)c1ncc(S(N)(=O)=NC(=O)Nc2c3c(cc4c2CC4)CCC3)s1 (single isomer, unassigned) [Example 817, (R) or (S)-2-((R)-1,2-dihydroxypropan-2-yl)-N′-((2,4,5,6-tetrahydro-1H-cyclobuta[f]inden-3-yl)carbamoyl)thiazole-5-sulfonimidamide]",8 to 40 nM
2,"COC1CCc2csc(S(N)(=O)=NC(=O)Nc3c4c(cc5c3CCC5)CCC4)c2C1 (single isomer, unassigned) [Example 857, (R, R) or (S, R)-N′-((1,2,3,5,6,7-hexahydro-s-indacen-4-yl)carbamoyl)-6-methoxy-4,5,6,7-tetrahydrobenzo[c]thiophene-1-sulfonimidamide]",1000 to 5000 nM
3,"C[C@@](O)(CO)c1ncc(S(N)(=O)=NC(=O)Nc2c3c(cc4c2C(=O)CC4)CCC3)s1 (single isomer, unassigned) [Example 819, (R) or (S) -2-((R)-1,2-dihydroxypropan-2-yl)-N′-((3-oxo-1,2,3,5,6,7-hexahydro-s-indacen-4-yl)carbamoyl)thiazole-5-sulfonimidamide]",200 to 1000 nM

# Same assay, conditions: hTHP-1 assay containing 2% fetal bovine serum, Table B2, class symbols; read-out: IC50
row,Compound,IC50
1,"CC(C)c1cc(S(N)(=O)=NC(=O)Nc2c3c(cc4c2CCC4)CCC3)c(F)cn1 (single isomer, unassigned) [Example 555, (R) or (S)-5-fluoro-N′-((1,2,3,5,6,7-hexahydro-s-indacen-4-yl)carbamoyl)-2-isopropylpyridine-4-sulfonimidamide]",200 to 1000 nM
2,"NS(=O)(=NC(=O)Nc1c2c(cc3c1CC3)CCC2)c1cnn2c1OCCC2 (single isomer, unassigned) [Example 546, (R) or (S)-N′-((2,4,5,6-tetrahydro-1H-cyclobuta[f]inden-3-yl)carbamoyl)-6,7-dihydio-5H-pyrazolo[5,1-b][1,3]oxazine-3-suIfonimidamide]",200 to 1000 nM
3,"CC(O)(CO)c1cc(F)c(S(N)(=O)=NC(=O)Nc2c3c(c(C#N)c4c2CCC4)CCC3)s1 (single isomer, unassigned) [Example 633]",5000 to 30000 nM
4,"(S)- and (R)-3-Fluoro-5-((methylamino)methyl)-N′-((2,4,5,6-tetrahydro-1H-cyclobuta[f]inden-3-yl)carbamoyl)thiophene-2-sulfonimidamide [Example 670]",40 to 200 nM
5,"Cc1c(C2CC2)cc2c(c1NC(=O)N=S(N)(=O)c1sc(C(C)(C)O)cc1F)CCC2 (single isomer, unassigned) [Example 686, (S) or (R)-N′-((6-cyclopropyl-5-methyl-2,3-dihydro-1H-inden-4-yl)carbamoyl)-3-fluoro-5-(2-hydroxypropan-2-yl)thiophene-2-sulfonimidamide]",1000 to 5000 nM
6,"CC(OC(F)F)c1ccc(S(N)(=O)=NC(=O)Nc2c3c(cc4c2CCC4)CCC3)cc1 (single isomer, unassigned) [Example 642]",5000 to 30000 nM
7,"CC(C)(O)c1cc(F)c(S(N)(=O)=NC(=O)Nc2c3c(cc4c2CC4)CCC3)s1 (single isomer, unassigned) [Example 432]",8 to 40 nM
8,"CO[C@H]1COc2c(S(N)(=O)=NC(=O)Nc3c4c(cc5c3CC5)CCC4)cnn2C1 (single isomer, unassigned) [Example 534, (R,6R) or (S,6R)-6-methoxy-N′-((2,4,5,6-tetrahydro-1H-cyclobuta[f]inden-3-yl)carbamoyl)-6,7-dihydro-5H-pyrazolo [5,1-b][1,3]oxazine-3-sulfonimidamide]",8 to 40 nM
9,"CC(C)(O)c1cc(S(N)(=O)=NC(=O)Nc2c3c(c(C#N)c4c2CCC4)CCC3)nn1-c1ccccc1 (single isomer, unassigned) [Example 574, (S) or (R)-N′-((8-cyano-1,2,3,5,6,7-hexahydro-s-indacen-4-yl)carbamoyl)-5-(2-hydroxypropan-2-yl)-1-pheny-1H-pyrazole-3-sulfonimidamide]",5000 to 30000 nM
10,"CNCc1cc(F)c(S(N)(=O)=NC(=O)Nc2c3c(cc4c2CCC4)CCC3)s1 (single isomer, unassigned) [Example 570, (R) or (S)-3-fluoro-N′-((1,2,3,5,6,7-hcxahydro-s-indacen-4-yl)carbamoyl)-5-((methylamino)methyl) thiophene-2-sulfonimidamide]",8 to 40 nM
11,"CN(C)Cc1ccc(S(N)(=O)=NC(=O)Nc2c3c(cc4c2CC4)CCC3)cc1 (single isomer, unassigned) [Example 580, (R) or (S)-4-((dimethylamino)methyl)-N′-((2,4,5,6-tetrahydro-1H-cyclobuta[f]inden-3 - yl)carbamoyl) benzenesulfonimidamide]",200 to 1000 nM
12,"CC(C)(O)c1cnc(S(N)(=O)=NC(=O)Nc2c3c(cc4c2C(O)CC4)CCC3)s1 (single isomer, unassigned) [Example 652, (R,R) or (R,S)-N′-((3-hydroxy-1,2,3,5,6,7-hexahydro-s-indacen-4-yl)carbamoyl)-5-(2-hydroxypropan-2-yl)thiazole-2-sulfonimidamide]",1000 to 5000 nM

# Same assay, conditions: hTHP-1 assay containing 2% fetal bovine serum, Table B2, given as bound; read-out: IC50
row,Compound,IC50
1,"CN(C)C(c1ccc(S(N)(=O)=NC(=O)Nc2c3c(cc4c2CCC4)CCC3)cc1)C(F)(F)F (single isomer, unassigned) [Example 666, (R,S) or (S,S)-4-(1-(dimethylamino)-2,2,2-trifluoroethyl)-N′-((1,2,3,5,6,7-hexahydro-s-indacen-4-yl)carbamoyl) benzenesulfonimidamide]",> 30000 nM

# — patent US20230051589A1, “COMPOUNDS AND COMPOSITIONS FOR TREATING CONDITIONS ASSOCIATED WITH NLRP ACTIVITY” (Novartis AG, priority 2018, published 2023)
